Measurements as given in patent US8633251B2, “Derivatives of aminoalkanols, method of obtaining of aminoalkanols and their use” (Uniwersytet Jagiellonski, priority 2008, dated 2014).
Structures can show the parent of a compound that is named as a salt. Where two headings read alike, the source gives them in different places.

Key:
neurotoxicity (rotarod) = assay: Neurotoxicity test (TOX), rotarod, mice; format: in vivo
[1] = test system: maximal electroshock seizures; assay: Maximum Electroshock Seizure (MES) test, mice; format: in vivo; conditions: mice; for responders at 30 mg/kg / responders at 100 mg/kg / responders at 300 mg/kg: Mus musculus; for responders at 30 mg/kg / responders at 300 mg/kg: read-out: MES, No. of protected animals/No. of used animals; for responders at 100 mg/kg: read-out: MES, No. of protected animals/No. of used animals (converted)
Procedure, shortened: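 Mice received compound in methylcellulose i.p. or p.o. at 30, 100 and 300 mg/kg, with some tests at 10 and 3 mg/kg. At 0.5 or 4 h, after tetracaine eye-drops, current was delivered through corneal electrodes (60 Hz, 0.2 s, 50 mA). Groups were one mouse at 30 and 300 mg/kg and three at 100 mg/kg.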

[2] = test system: maximal electroshock seizures; assay: Maximum Electroshock Seizure (MES) test, rats; format: in vivo; conditions: 0.25 h
Experimental: In order to define anticonvulsant activity, screening tests were performed, using animal models of seizures. […] The tests were based on administration of a compound to an animal and after certain time inducing state similar to epilepsy attack in human. Each substance (after dissolving in methylcellulose) was normally tested in doses 30, 100, and 300 mg/kg body weight (b.w.) (mice) or in 30 and 50 mg/kg b.w. (rats) in two possible routes of administration: intraperitoneal (i.p.) or oral (p.o.). […] […] (mice) the tests were also performed in doses 10 and 3 mg/kg b.w.
Maximum Electroshock Seizure (MES) test is an electric test, verifying activity towards generalized tonic-clonic seizures (grand mal epilepsy). […] Its procedure consists in administration to an animal a mentioned dose, […] (after anesthetic eye-drops: 0.5% tetracaine hydrochloride in 0.9% NaCl) and turning on electric current (60 Hz, 0.2 s, 50 mA (mice) or 150 mA (rats)). […]

[3] = test system: pilocarpine induced status epilepticus; assay: Status epilepticus prevention (pilocarpine), rats; format: in vivo, Sprague Dawley albino rat; conditions: i.p.
Experimental: Status epilepticus prevention—an animal (Sprague Dawley albino rat male) is given a dose of tested substance. After 0, 0.25, 0.5, 1, 2, and 4 h pilocarpine is administered. The seizures induced are described by Racine's score. Compounds 27 and 28 were administered i.p. in doses 25 and 45 mg/kg b.w. respectively. […] Average body weight loss is measured 24 h after administration.

[4] = test system: pentylenetetrazol-induced seizures; assay: Subcutaneous Metrazol Test (ScMet), mice; format: in vivo
Experimental: In order to define anticonvulsant activity, screening tests were performed, using animal models of seizures. […] The tests were based on administration of a compound to an animal and after certain time inducing state similar to epilepsy attack in human. Each substance (after dissolving in methylcellulose) was normally tested in doses 30, 100, and 300 mg/kg body weight (b.w.) (mice) or in 30 and 50 mg/kg b.w. (rats) in two possible routes of administration: intraperitoneal (i.p.) or oral (p.o.). Appropriate tests were performed 0.5 and 4 h after administration of the compound. […] (mice) the tests were also performed in doses 10 and 3 mg/kg b.w.
Subcutaneous Metrazol Test (ScMet) is a chemical test, where compounds are tested for activity in absence seizures (petit mal epilepsy). Pentetrazol (metrazol) is considered to block chloride channel in the GABAA receptor complex, therefore at a certain dose in animals it causes myoclonic jerks, next—clonic seizures, and then tonic seizures. The procedure consists in administration of a tested compound and after 0.5 or 4 h subcutaneous administration of pentylenetetrazol in the dose of 85 mg/kg b.w. (mice) or 70 mg/kg b.w. (rats) in a 0.85% solution in 0.9% NaCl. […] Normally the test is performed in single animals.

[5] = mice, dose 100 mg/kg b.w., time 0.5 h
[6] = mice, dose 100 mg/kg b.w., time 4 h
[7] = mice, dose 300 mg/kg b.w., time 0.5 h
[8] = dose 100 mg/kg b.w., time 0.5 h
[9] = mice, dose 100 mg/kg b.w., 0.5 h
[10] = mice, dose 300 mg/kg b.w., 0.5 h

SMILES: Cc1cccc(C)c1OCCNC(C)(C)CCO (as salt: hydrochloride) [Compound 15, 3N-[(2,6-dimethylphenoxy)ethyl]amino-3-methyl-1-butanol hydrochloride]
- melting point: 170 to 172 °C

SMILES: Cc1cccc(C)c1OCCN[C@H](CO)C(C)C (as salt: hydrochloride) [Compound 16, L-2N-[(2,6-dimethylphenoxy)ethyl]amino-3-methyl-1-butanol hydrochloride]
- melting point: 162 to 164 °C

SMILES: Cc1cccc(C)c1OCCNCCCCCO (as salt: hydrochloride) [Compound 17, 5N-[(2,6-dimethylphenoxy)ethyl]amino-1-pentanol hydrochloride]
- melting point: 138 to 140 °C

SMILES: Cc1cccc(C)c1OCCCN[C@H](C)CO (as salt: hydrochloride) [Compound 52, R-(−)-2N-[(2,6-dimethylphenoxy)propyl]amino-1-propanol hydrochloride]
- melting point: 119 to 120 °C

SMILES: CCC(NC(=O)COc1c(C)cccc1C)C(N)=O (racemic) [Compound 66, D,L-2N-[(2,6-dimethylphenoxy)acetyl]aminobutyramide]
- melting point: 182 to 184 °C

SMILES: Cc1cccc(C)c1OCCNC[C@@H](C)O [Compound 10, R-(−)-1N-[(2,6-dimethylphenoxy)ethyl]amino-2-propanol]
- melting point: 76 to 77 °C
- TOX, No. of animals exhibiting motor impairment/no. of used animals (neurotoxicity (rotarod); mice, dose 30 mg/kg b.w., time 0.5 h): 1/4
- TOX, No. of animals exhibiting motor impairment/no. of used animals (neurotoxicity (rotarod); [5]): 8/8
- TOX, No. of animals exhibiting motor impairment/no. of used animals (neurotoxicity (rotarod); [6]): 1/3
- TOX, No. of animals exhibiting motor impairment/no. of used animals (neurotoxicity (rotarod); [7]): 4/4
- responders at 30 mg/kg ([1]; dose 30 mg/kg b.w., time 0.5 h): 100%
- responders at 100 mg/kg ([1]; dose 100 mg/kg b.w., time 4 h): 100%

SMILES: Cc1cccc(C)c1OCCNC(C)CO (stereo not drawn) [Compound 11, R,S-2N-[(2,6-dimethylphenoxy)ethyl]amino-1-propanol]
- TOX, No. of animals exhibiting motor impairment/no. of used animals (neurotoxicity (rotarod); mouse, in vivo, 30 mg/kg): 2/4
- TOX, No. of animals exhibiting motor impairment/no. of used animals (neurotoxicity (rotarod); mouse, in vivo, 100 mg/kg): 8/8
- TOX, No. of animals exhibiting motor impairment/no. of used animals (neurotoxicity (rotarod); mouse, in vivo, 300 mg/kg): 4/4
- ED50 (MES, rats, p.o., 0.25 h) ([2]; p.o.): 47.03 mg/kg b.w.
- MES, No. of protected animals/No. of used animals ([1]; dose 30 mg/kg b.w., time 0.5 h): 1/1

SMILES: Cc1cccc(C)c1OCCN[C@@H](C)CO [Compound 13, S-(+)-2N-[(2,6-dimethylphenoxy)ethyl]amino-1-propanol]
- TOX, No. of animals exhibiting motor impairment/no. of used animals (neurotoxicity (rotarod); mouse, in vivo, 100 mg/kg): 8/8
- TOX, No. of animals exhibiting motor impairment/no. of used animals (neurotoxicity (rotarod); mouse, in vivo, 300 mg/kg): 4/4
- ED50 (MES, rats, i.p., 0.25 h) ([2]; i.p.): 6.50 mg/kg b.w.
- MES, No. of protected animals/No. of used animals ([1]; dose 10 mg/kg b.w., time 0.5 h): 2/4
- MES, No. of protected animals/No. of used animals ([1]; dose 30 mg/kg b.w., time 0.5 h): 1/1
- ED50 (MES, mice, i.p., 0.25 h) ([1]; i.p., 0.25 h): 8.59 mg/kg b.w.

SMILES: Cc1cccc(C)c1OCCNC[C@H](O)c1ccccc1 [Compound 20, R-(−)-2N-[(2,6-dimethylphenoxy)ethyl]amino-1-phenylethanol]
- melting point: 78 to 80 °C
- TOX, No. of animals exhibiting motor impairment/no. of used animals (neurotoxicity (rotarod); [5]): 8/8
- TOX, No. of animals exhibiting motor impairment/no. of used animals (neurotoxicity (rotarod); [7]): 4/4
- responders at 30 mg/kg ([1]; dose 30 mg/kg b.w., time 0.5 h): 100%

SMILES: CC[C@H](CO)NCCOc1c(C)cccc1Cl [Compound 27, R-(−)-2N-[(2-chlor-6-methylphenoxy)ethyl]amino-1-butanol]
- TOX, No. of animals exhibiting motor impairment/no. of used animals (neurotoxicity (rotarod); [5]): 8/8
- TOX, No. of animals exhibiting motor impairment/no. of used animals (neurotoxicity (rotarod); [7]): 4/4
- MES, No. of protected animals/No. of used animals ([1]; dose 30 mg/kg b.w., time 0.5 h): 1/1
- MES, No. of protected animals/No. of used animals [1, 8]: 1/1
- Average weight loss ± S.E.M. ([3]; body weight loss 24 h after administration, 25 (27) or 45 (28) mg/kg b.w.): 8.3 ± 7.1
- protection in status epilepticus prevention ([3]; 25 (27) and 45 (28) mg/kg b.w.): 2 rats out of 8
- Protection ([3]; rats protected/tested, time 0 h, dose 25 (27) or 45 (28) mg/kg b.w.): 2/8

SMILES: Cc1cccc(OCCCNC(C)(C)CO)c1C [Compound 47, 2N-[(2,3-dimethylphenoxy)propyl]amino-2-methyl-1-propanol]
- melting point: 128 to 130 °C
- TOX, No. of animals exhibiting motor impairment/no. of used animals (neurotoxicity (rotarod); [5]): 8/8
- TOX, No. of animals exhibiting motor impairment/no. of used animals (neurotoxicity (rotarod); [6]): 4/4
- TOX, No. of animals exhibiting motor impairment/no. of used animals (neurotoxicity (rotarod); [7]): 4/4
- responders at 100 mg/kg [1, 8]: 100%

SMILES: Cc1cccc(C)c1OCCCNC(C)(C)CO [Compound 53, 2N-[(2,6-dimethylphenoxy)propyl]amino-2-methyl-1-propanol]
- melting point: 73 to 75 °C
- TOX, No. of animals exhibiting motor impairment/no. of used animals (neurotoxicity (rotarod); mice, dose 30 mg/kg b.w., 0.5 h): 1/4
- TOX, No. of animals exhibiting motor impairment/no. of used animals (neurotoxicity (rotarod); [9]): 8/8
- TOX, No. of animals exhibiting motor impairment/no. of used animals (neurotoxicity (rotarod); [10]): 4/4
- responders at 100 mg/kg ([1]; dose 100 mg/kg b.w., 0.5 h): 100%

SMILES: Cc1cccc(C)c1OCC(=O)N[C@H]1CC[C@H](O)CC1 [Compound 64, trans-4N-[(2,6-dimethylphenoxy)acetyl]amino-1-cyclohexanol]
- melting point: 161 to 162 °C
- TOX, No. of animals exhibiting motor impairment/no. of used animals (neurotoxicity (rotarod); [9]): 7/8
- TOX, No. of animals exhibiting motor impairment/no. of used animals (neurotoxicity (rotarod); [10]): 4/4
- responders at 100 mg/kg ([1]; dose 100 mg/kg b.w., 0.5 h): 100%
- responders at 300 mg/kg ([1]; dose 300 mg/kg b.w., 0.5 h): 100%
- responders at 300 mg/kg ([4]; Mus musculus, sc, dose 300 mg/kg b.w., 0.5 h, read-out: ScMet, No. of protected animals/No. of used animals): 100%

SMILES: Cc1cccc(C)c1OCC(=O)N[C@H](C)C(N)=O [Compound 65, D-2N-[(2,6-dimethylphenoxy)acetyl]aminopropionamide]
- melting point: 177 to 178 °C
- TOX, No. of animals exhibiting motor impairment/no. of used animals (neurotoxicity (rotarod); [9]): 2/8
- TOX, No. of animals exhibiting motor impairment/no. of used animals (neurotoxicity (rotarod); [10]): 1/4
- responders at 300 mg/kg ([1]; dose 300 mg/kg b.w., 0.5 h): 100%
- responders at 30 mg/kg ([4]; Mus musculus, sc, dose 30 mg/kg b.w., 4 h, read-out: ScMet, No. of protected animals/No. of used animals (converted)): 20%

SMILES: CCC(CO)NC(=O)COc1c(C)cccc1Cl (stereo not drawn) [Compound 73, R,S-2N-[(2-chlor-6-methylphenoxy)acetyl]amino-1-butanol]
- TOX, No. of animals exhibiting motor impairment/no. of used animals (neurotoxicity (rotarod); [10]): 4/4
- MES, No. of protected animals/No. of used animals ([1]; dose 300 mg/kg b.w., 0.5 h): 1/1
- MES, No. of protected animals/No. of used animals ([1]; dose 300 mg/kg b.w., 4 h): 1/1
- ScMet, No. of protected animals/No. of used animals ([4]; dose 100 mg/kg b.w., 0.5 h): 3/5
- ScMet, No. of protected animals/No. of used animals ([4]; dose 300 mg/kg b.w., 0.5 h): 1/1

SMILES: Cc1cc(Cl)ccc1OCC(=O)NCC(C)O (stereo not drawn) [Compound 80, R,S-1N-[(4-chlor-2-methylphenoxy)acetyl]amino-2-propanol]
- TOX, No. of animals exhibiting motor impairment/no. of used animals (neurotoxicity (rotarod); [10]): 4/4
- MES, No. of protected animals/No. of used animals ([1]; dose 300 mg/kg b.w., 0.5 h): 1/1
- ScMet, No. of protected animals/No. of used animals ([4]; dose 300 mg/kg b.w., 0.5 h): 1/1

SMILES: CCC(O)CNC(=O)COc1ccc(Cl)cc1C (stereo not drawn) [Compound 81, R,S-1N-[(4-chlor-2-methylphenoxy)acetyl]amino-2-butanol]
- TOX, No. of animals exhibiting motor impairment/no. of used animals (neurotoxicity (rotarod); [10]): 4/4
- MES, No. of protected animals/No. of used animals ([1]; dose 300 mg/kg b.w., 0.5 h): 1/1
- ScMet, No. of protected animals/No. of used animals ([4]; dose 300 mg/kg b.w., 0.5 h): 1/1
